Measurements as given in patent publication US5239083A, “Indole derivatives which inhibit steroid 5α reductase” (Kyowa Hakko Kogyo Co., Ltd., priority 1991, dated 1993).

Each molecule was assayed on male dd mice (assay: Acute Toxicity Test (oral, mice)). Conditions: oral 300 mg/kg, mortality observed seven days after administration.
Assay type: in vivo
Description: Test compounds (300 mg/kg) were orally administered to male dd mice weighing 20±1 g (each group consists of three animals). Minimum lethal dose (MLD) was determined by observing mortality seven days after the administration.

In the case of “4-{2-[3-[1-(1-butylpentyl)indol-5-yl]isocrotonoyl amino]phenoxy}butyric acid [Compound 20]”, the “Acute toxicity (MLD), minimum lethal dose” value (“Acute toxicity (MLD)” for short) is reported as over 300 mg/kg.
`C/C(=C\C(=O)Nc1ccccc1OCCCC(=O)O)c1ccc2c(ccn2C(c2ccccc2)c2ccccc2)c1` [Compound 2, 4-{2-[3-(1-benzhydrylindol-5-yl)isocrotonoylamino]phenoxy}butyric acid] was tested, and the “Acute toxicity (MLD)” value was over 300 mg/kg.
With `CCCCCn1ccc2cc(/C(C)=C/C(=O)Nc3ccccc3OCCCC(=O)O)ccc21` [Compound 6, 4-{2-[3-(1-pentylindol-5-yl)isocrotonoylamino]phenoxy}butyric acid] the “Acute toxicity (MLD)” value was over 300 mg/kg.
For `CCCCCCn1ccc2cc(/C(C)=C/C(=O)Nc3ccccc3OCCCC(=O)O)ccc21` [Compound 7, 4-{2-[3-(1-hexylindol-5-yl)isocrotonoylamino]phenoxy}butyric acid], the “Acute toxicity (MLD)” value was over 300 mg/kg.
With `CCC(C)n1ccc2cc(/C(C)=C/C(=O)Nc3ccccc3OCCCC(=O)O)ccc21` (stereo not shown) [Compound 15, 4-{2-[3-[1-(1-methylpropyl)indol-5-yl]isocrotonoylamino]phenoxy}butyric acid] the “Acute toxicity (MLD)” value was over 300 mg/kg.
`CCCC(C)n1ccc2cc(/C(C)=C/C(=O)Nc3ccccc3OCCCC(=O)O)ccc21` (stereo not shown) [Compound 16, 4-{2-[3-[1-(1-methylbutyl)indol-5-yl]isocrotonoylamino]phenoxy}butyric acid] was tested, and the “Acute toxicity (MLD)” value was over 300 mg/kg.
In the case of `CCCCC(C)n1ccc2cc(/C(C)=C/C(=O)Nc3ccccc3OCCCC(=O)O)ccc21` (stereo not shown) [Compound 17, 4-{2-[3-[1-(1-methylpentyl)indol-5-yl]isocrotonoylamino]phenoxy}butyrate], the “Acute toxicity (MLD)” value is reported as over 300 mg/kg.
With `CCCCC(CC)n1ccc2cc(/C(C)=C/C(=O)Nc3ccccc3OCCCC(=O)O)ccc21` (stereo not shown) [Compound 18, 4-{2-[3-[1-(1-ethylpentyl)indol-5-yl]isocrotonoylamino]phenoxy}butyric acid] the “Acute toxicity (MLD)” value was over 300 mg/kg.
With `CCCC(c1ccccc1)n1ccc2cc(/C(C)=C/C(=O)Nc3ccccc3OCCCC(=O)O)ccc21` (stereo not drawn) [Compound 41, 4-{2-[3-[1-(α-propylbenzyl)indol-5-yl]isocrotonoylamino]phenoxy}butyric acid] the “Acute toxicity (MLD)” value was over 300 mg/kg.

What follows are molecules tested on steroid 5α-reductase (assay: Inhibition effects on steroid 5α-reductase activity (rat prostate enzyme, [4-14C]-testosterone)). Conditions: pH 6.5, 37° C., 20 minutes.
Assay type: biochemical, male rats
Description: The measurements of inhibition effects of test compounds on steroid 5α-reductase activity were performed according to the method described by Liang et al. [J. Biol. Chem., 259, 734 (1984)] as follows.
The prostates from male rats were homogenated in three tissue volumes of 20 mM sodium phosphate buffer (pH 6.5; containing 0.32M sucrose and 1 mM dithiothreitol). The homogenate was centrifuged at 140,000 X g for one hour. The precipitate was suspended in the buffer described above and the suspension was centrifuged at 140,000 X g for one hour. The precipitate was resuspended in the buffer described above and the solution (30-50 mg protein/ml) was used as enzyme in following assay.
[4-^14 C]-testosterone (1.5 nmol), NADPH (75 nmol), the enzyme (1 mg protein) and test compound in a total volume of 0.5 ml of 40 mM sodium phosphate buffer [pH 6.5, containing 1 mM dithiothreitol] was incubated at 37° C. After 20 minutes the enzyme activity was stopped by the addition of 2 ml of ethyl acetate. The mixture was then centrifuged at 1,000 g, for 5 minutes. The ethyl acetate layer was transferred to another tube and evaporated to dryness. The steroids were taken up in 50 μl of ethyl acetate and separated by thin layer chromatography (TLC) on silica gel in a developing solvent (ethyl acetate: cyclohexane=1:1). The radioactivity of testosterone and dihydrotestosterone on the TLC plate was measured by a TLC scanner.

First: 4-{2-[3-[1-(1-butylpentyl)indol-5-yl]isocrotonoyl amino]phenoxy}butyric acid [Compound 20]
Second: 4-{2-[3-[1-(1-propylbutyl)indol-5-yl]isocrotonoyl amino]phenoxy}butyric acid [Compound 19]
The “inhibition rate (%), 10^-7 M” value of the first is lower: 79% for the first, 94% for the second.

Going from `C/C(=C\C(=O)Nc1ccccc1OCCCC(=O)O)c1ccc2c(ccn2C(c2ccccc2)c2ccccc2)c1` [Compound 2, 4-{2-[3-(1-benzhydrylindol-5-yl)isocrotonoylamino]phenoxy}butyric acid] to `CCCCCn1ccc2cc(/C(C)=C/C(=O)Nc3ccccc3OCCCC(=O)O)ccc21` [Compound 6, 4-{2-[3-(1-pentylindol-5-yl)isocrotonoylamino]phenoxy}butyric acid], the “inhibition rate (%), 10^-7 M” value falls from 95% to 81%.

Compared with `CCCC(C)n1ccc2cc(/C(C)=C/C(=O)Nc3ccccc3OCCCC(=O)O)ccc21` (stereo not shown) [Compound 16, 4-{2-[3-[1-(1-methylbutyl)indol-5-yl]isocrotonoylamino]phenoxy}butyric acid], `CCCCC(CC)n1ccc2cc(/C(C)=C/C(=O)Nc3ccccc3OCCCC(=O)O)ccc21` (stereo not shown) [Compound 18, 4-{2-[3-[1-(1-ethylpentyl)indol-5-yl]isocrotonoylamino]phenoxy}butyric acid] is higher in “inhibition rate (%), 10^-7 M” value: 88% for the first, 90% for the second.

First: CCCC(C)C(C)n1ccc2cc(/C(C)=C/C(=O)Nc3ccccc3OCCCC(=O)O)ccc21 (stereo not shown) [Compound 22, 4-{2-[3-[1-(1,2-dimethylpentyl)indol-5-yl]isocrotonoylamino]phenoxy}butyric acid]
Second: C/C(=C\C(=O)Nc1ccccc1OCCCC(=O)O)c1ccc2c(ccn2C(C)c2ccccc2)c1 (stereo not drawn) [Compound 38, 4-{2-[3-[1-(α-methylbenzyl)indol-5-yl]isocrotonoylamino]phenoxy}butyric acid]
The “inhibition rate (%), 10^-7 M” value of the first is lower: 70% for the first, 78% for the second.

Going from `CCC(c1ccccc1)n1ccc2cc(/C(C)=C/C(=O)Nc3ccccc3OCCCC(=O)O)ccc21` (stereo not drawn) [Compound 40, 4-{2-[3-[1-(α-ethylbenzyl)indol-5-yl]isocrotonoylamino]phenoxy}butyric acid] to `CCCC(c1ccccc1)n1ccc2cc(/C(C)=C/C(=O)Nc3ccccc3OCCCC(=O)O)ccc21` (stereo not drawn) [Compound 41, 4-{2-[3-[1-(α-propylbenzyl)indol-5-yl]isocrotonoylamino]phenoxy}butyric acid], the “inhibition rate (%), 10^-7 M” value rises from 78% to 90%.

First: C/C(=C\C(=O)Nc1ccc(F)cc1OCCCC(=O)O)c1ccc2c(ccn2C(c2ccccc2)c2ccccc2)c1 [Compound 48, 4-{2-[3-(1-benzhydrylindol-5-yl)isocrotonoylamino]-5-fluorophenoxy}butyric acid]
Second: C/C(=C\C(=O)Nc1ccccc1OCCCC(=O)O)c1ccc2c(ccn2C(c2ccccc2)c2ccc(F)cc2)c1 (stereo not shown) [Compound 57, 4-{2-[3-[1-(4-fluorobenzhydryl)indol-5-yl]isocrotonoylamino]phenoxy}butyricacid]
The “inhibition rate (%), 10^-7 M” value of the first is higher: 93% for the first, 92% for the second.

Going from `C/C(=C\C(=O)Nc1ccccc1OCCCC(=O)O)c1ccc2c(ccn2C(c2ccccc2)c2ccccc2F)c1` (stereo not shown) [Compound 58, 4-{2-[3-[1-(2-fluorobenzhydryl)indol-5-yl]isocrotonoylamino]phenoxy}butyricacid] to `C/C(=C\C(=O)Nc1ccccc1OCCCC(=O)O)c1ccc2c(ccn2C(c2ccc(F)cc2)c2ccc(F)cc2)c1` [Compound 59, 4-{2-[3-[1-(4,4'-difluorobenzhydryl)indol-5-yl]isocrotonoylamino]phenoxy}butyric acid], the “inhibition rate (%), 10^-7 M” value falls from 93% to 92%.

First: COc1ccc(C(c2ccc(OC)cc2)n2ccc3cc(/C(C)=C/C(=O)Nc4ccccc4OCCCC(=O)O)ccc32)cc1 [Compound 60, 4-{2-[3-[1-(4,4-dimethoxybenzhydryl)indol-5-yl]isocrotonoylamino]phenoxy}butyric acid]
Second: C/C(=C\C(=O)Nc1ccccc1OCCCC(=O)O)c1ccc2c(ccn2C(c2ccccc2)c2ccccn2)c1 (stereo not shown) [Compound 63, 4-{2-[3-[1-[phenyl-(2-pyridyl)methyl]indol-5-yl]isocrotonoylamino]phenoxy}butyric acid]
The “inhibition rate (%), 10^-7 M” value of the first is higher: 87% for the first, 72% for the second.

First: CCCC(CCC)n1ccc2cc(/C(C)=C/C(=O)Nc3ccc(F)cc3OCCCC(=O)O)ccc21 [Compound 67]
Second: CCCC(CC)n1ccc2cc(/C(C)=C/C(=O)Nc3ccccc3OCCCC(=O)O)ccc21 (stereo not shown) [Compound 68, 4-{2-[3-[1-(1-ethylbutyl)indol-5-yl]isocrotonoylamino]phenoxy}butyric acid]
The “inhibition rate (%), 10^-7 M” value of the first is higher: 98% for the first, 92% for the second.

Going from `C/C(=C\C(=O)Nc1ccccc1OCCCC(=O)O)c1ccc2c(ccn2C(C)CCCC(C)C)c1` (stereo not shown) [Compound 76, 4-{2-[3-[1-(1,5-dimethylhexyl)indol-5-6l]isocrotonoylamino]phenoxy}butyric acid] to `C/C(=C\C(=O)Nc1ccccc1OCCCC(=O)O)c1ccc2c(ccn2C(CC(C)C)c2ccccc2)c1` (stereo not drawn) [Compound 77, 4-{2-[3-[1-[α-(2-methyl)-propylbenzyl]indol-5-yl]isocrotonoylamino]phenoxy}butyric acid], the “inhibition rate (%), 10^-7 M” value rises from 70% to 97%.

First: CCCC(c1ccccc1C)n1ccc2cc(/C(C)=C/C(=O)Nc3ccccc3OCCCC(=O)O)ccc21 (stereo not drawn) [Compound 78, 4-{2-[3-[1-(2-methyl-α-propylbenzyl)indol-5-yl]isocrotonoylamino]phenoxy}butyric acid]
Second: CCCCC(c1ccccc1C)n1ccc2cc(/C(C)=C/C(=O)Nc3ccccc3OCCCC(=O)O)ccc21 (stereo not drawn) [Compound 79, 4-{2-[3-[1-(α-butyl-2-methylbenzyl)indol-5-yl]isocrotonoylamino]phenoxy}butyric acid]
The “inhibition rate (%), 10^-7 M” value of the first is higher: 94% for the first, 90% for the second.

First: C/C(=C\C(=O)Nc1ccccc1OCCCC(=O)O)c1ccc2c(ccn2C(c2ccccc2)c2ccc(C(F)(F)F)cc2)c1 (stereo not shown) [Compound 83]
Second: C/C(=C\C(=O)Nc1ccccc1OCCCC(=O)O)c1ccc2c(ccn2C(c2ccccc2)c2cccnc2)c1 (stereo not shown) [Compound 84]
The “inhibition rate (%), 10^-7 M” value of the first is higher: 90% for the first, 66% for the second.

`CCCC(CCC)n1ccc2cc(/C(=C/C(=O)Nc3ccccc3OCCCC(=O)O)CC)ccc21` [Compound 88, 4-{2-[3-[1-(1-propylbutyl)indol-5-yl]-cis-2-pentenoylamino]phenoxy}butyric acid] and `CCCC(CCC)n1ccc2cc(/C(=C/C(=O)Nc3ccc(F)cc3OCCCC(=O)O)CC)ccc21` [Compound 89, 4-{2-[3-[1-(1-propylbutyl)indol-5-yl]-cis-2-pentenoylamino]-5-fluorophenoxy}butyric acid] are the same in “inhibition rate (%), 10^-7 M” value: 95% for the first, 95% for the second.

Compared with `CCCCC(CCC)n1ccc2cc(/C(=C/C(=O)Nc3ccccc3OCCCC(=O)O)CC)ccc21` (stereo not drawn) [Compound 90, 4-{2-[3-[1-(1-propylpentyl)indol-5-yl]-cis-2-pentenoylamino]phenoxy}butyricacid], `CCCCC(CCC)n1ccc2cc(/C(=C/C(=O)Nc3ccc(F)cc3OCCCC(=O)O)CC)ccc21` (stereo not drawn) [Compound 91, 4-{2-[3-[1-(1-propylpentyl)indol-5-yl]-cis-2-pentenoylamino]-5-fluorophenoxy}butyric acid] is higher in “inhibition rate (%), 10^-7 M” value: 79% for the first, 98% for the second.

Compared with `CC/C(=C\C(=O)Nc1ccccc1OCCCC(=O)O)c1ccc2c(ccn2C(CC(C)C)CC(C)C)c1` [Compound 92, 4-{2-[3-[1-[3-methyl-1-(2-methylpropyl)butyl]indol-5-yl]-cis-2-pentenoylamino]phenoxy}butyric acid], `CC/C(=C\C(=O)Nc1ccccc1OCCCC(=O)O)c1ccc2c(ccn2C(c2ccccc2)c2ccccc2)c1` [Compound 93, 4-{2-[3-(1-benzhydrylindol-5-yl)-cis-2-pentenoylamino]phenoxy}butyric acid] is higher in “inhibition rate (%), 10^-7 M” value: 91% for the first, 94% for the second.

In the case of `CC/C(=C\C(=O)Nc1ccccc1OCCCC(=O)O)c1ccc2c(ccn2C(c2ccc(F)cc2)c2ccc(F)cc2)c1` [Compound 94, 4-{2-[3-[1-(4,4'-difluorobenzhydryl)indol-5-yl]-cis-2-pentenoylaminmo]phenoxy}butyric acid], the “inhibition rate (%), 10^-7 M” value is reported as 97%.
